Assay results reported in PubChem BioAssay AID1919017 (Molecular Pharmacology Branch, DTP, NCI, 2023).

Tested on: SW1271 complex spheroids with HUVEC/MSC, growth, % test/control
Assay: Anticancer human tumor SW1271 cell line growth inhibition [AhR];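 note: spheroids exposed to agents for 7 days before readout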
Conditions: for IC50: curve of first compound; for viability, T/C: stronger effect = lower value
Summary of the method: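 Complex tumor spheroids co-cultured with HUVEC and human MSC stroma; AhR antagonists tested in combination with standard-of-care and investigational agents. Top concentration at or near clinical Cmax (else 10 microM), half-log dilutions; growth expressed as percent test/control.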

[1] = second compound 0.1 µM, first compound 0.0316 µM
[2] = second compound 0.1 µM, first compound 0.1 µM
[3] = second compound 0.316 µM, first compound 0.0316 µM
[4] = second compound 0.316 µM, first compound 0.1 µM
[5] = second compound 1 µM, first compound 0.0316 µM
[6] = second compound 1 µM, first compound 0.1 µM
[7] = second compound 3.16 µM, first compound 0.0316 µM
[8] = second compound 3.16 µM, first compound 0.1 µM
[9] = second compound 10 µM, first compound 0.0316 µM
[10] = second compound 10 µM, first compound 0.1 µM
[11] = second compound 0.1 µM, first compound 0.00949 µM
[12] = second compound 0.1 µM, first compound 0.03 µM
[13] = second compound 0.1 µM, first compound 0.0949 µM
[14] = second compound 0.1 µM, first compound 0.3 µM
[15] = second compound 0.316 µM, first compound 0.00949 µM
[16] = second compound 0.316 µM, first compound 0.03 µM
[17] = second compound 0.316 µM, first compound 0.0949 µM
[18] = second compound 0.316 µM, first compound 0.3 µM
[19] = second compound 1 µM, first compound 0.00949 µM
[20] = second compound 1 µM, first compound 0.03 µM
[21] = second compound 1 µM, first compound 0.0949 µM
[22] = second compound 1 µM, first compound 0.3 µM
[23] = second compound 3.16 µM, first compound 0.00949 µM
[24] = second compound 3.16 µM, first compound 0.03 µM
[25] = second compound 3.16 µM, first compound 0.0949 µM
[26] = second compound 3.16 µM, first compound 0.3 µM
[27] = second compound 10 µM, first compound 0.00949 µM
[28] = second compound 10 µM, first compound 0.03 µM
[29] = second compound 10 µM, first compound 0.0949 µM
[30] = second compound 10 µM, first compound 0.3 µM

## CC1(C)CCC(CN2CCN(c3ccc(C(=O)NS(=O)(=O)c4ccc(NCC5CCOCC5)c([N+](=O)[O-])c4)c(Oc4cnc5[nH]ccc5c4)c3)CC2)=C(c2ccc(Cl)cc2)C1 + CC(CO)NC(=O)c1cc(-c2ccc(Cl)cc2)nn(-c2cnn(C)c2)c1=O
Second compound 0.1 µM
  IC50: > 10000 nM
Second compound 0.316 µM
  IC50: > 10000 nM
Second compound 1 µM
  IC50: > 10000 nM
Second compound 3.16 µM
  IC50: > 10000 nM
Second compound 10 µM
  IC50: > 10000 nM
[1]
  viability, T/C: 85.8%
[2]
  viability, T/C: 90.7%
Second compound 0.1 µM, first compound 0.316 µM
  viability, T/C: 107%
Second compound 0.1 µM, first compound 1 µM
  viability, T/C: 98.6%
Second compound 0.1 µM, first compound 3.16 µM
  viability, T/C: 82.7%
Second compound 0.1 µM, first compound 10 µM
  viability, T/C: 71.5%
[3]
  viability, T/C: 84.4%
[4]
  viability, T/C: 73%
Second compound 0.316 µM, first compound 0.316 µM
  viability, T/C: 71.8%
Second compound 0.316 µM, first compound 1 µM
  viability, T/C: 84.2%
Second compound 0.316 µM, first compound 3.16 µM
  viability, T/C: 100%
Second compound 0.316 µM, first compound 10 µM
  viability, T/C: 78.3%
[5]
  viability, T/C: 91%
[6]
  viability, T/C: 89.3%
Second compound 1 µM, first compound 0.316 µM
  viability, T/C: 78.8%
Second compound 1 µM, first compound 1 µM
  viability, T/C: 80.4%
Second compound 1 µM, first compound 3.16 µM
  viability, T/C: 85%
Second compound 1 µM, first compound 10 µM
  viability, T/C: 86.3%
[7]
  viability, T/C: 68%
[8]
  viability, T/C: 70.2%
Second compound 3.16 µM, first compound 0.316 µM
  viability, T/C: 91.4%
Second compound 3.16 µM, first compound 1 µM
  viability, T/C: 82.5%
Second compound 3.16 µM, first compound 3.16 µM
  viability, T/C: 60.7%
Second compound 3.16 µM, first compound 10 µM
  viability, T/C: 88.6%
[9]
  viability, T/C: 70.8%
[10]
  viability, T/C: 69.3%
Second compound 10 µM, first compound 0.316 µM
  viability, T/C: 74.7%
Second compound 10 µM, first compound 1 µM
  viability, T/C: 54.8%
Second compound 10 µM, first compound 3.16 µM
  viability, T/C: 78.2%
Second compound 10 µM, first compound 10 µM
  viability, T/C: 78.2%

## CCN(c1cc(-c2ccc(CN3CCOCC3)cc2)cc(C(=O)NCc2c(C)cc(C)[nH]c2=O)c1C)C1CCOCC1 + CC(CO)NC(=O)c1cc(-c2ccc(Cl)cc2)nn(-c2cnn(C)c2)c1=O
Second compound 0.1 µM
  IC50: > 3000 nM
Second compound 0.316 µM
  IC50: > 3000 nM
Second compound 1 µM
  IC50: > 3000 nM
Second compound 3.16 µM
  IC50: > 3000 nM
Second compound 10 µM
  IC50: > 3000 nM
[11]
  viability, T/C: 122%
[12]
  viability, T/C: 117%
[13]
  viability, T/C: 106%
[14]
  viability, T/C: 97.2%
Second compound 0.1 µM, first compound 0.949 µM
  viability, T/C: 102%
Second compound 0.1 µM, first compound 3 µM
  viability, T/C: 91.8%
[15]
  viability, T/C: 101%
[16]
  viability, T/C: 108%
[17]
  viability, T/C: 120%
[18]
  viability, T/C: 113%
Second compound 0.316 µM, first compound 0.949 µM
  viability, T/C: 110%
Second compound 0.316 µM, first compound 3 µM
  viability, T/C: 112%
[19]
  viability, T/C: 86.6%
[20]
  viability, T/C: 105%
[21]
  viability, T/C: 119%
[22]
  viability, T/C: 94.5%
Second compound 1 µM, first compound 0.949 µM
  viability, T/C: 105%
Second compound 1 µM, first compound 3 µM
  viability, T/C: 110%
[23]
  viability, T/C: 91.9%
[24]
  viability, T/C: 88%
[25]
  viability, T/C: 103%
[26]
  viability, T/C: 89.3%
Second compound 3.16 µM, first compound 0.949 µM
  viability, T/C: 106%
Second compound 3.16 µM, first compound 3 µM
  viability, T/C: 90.3%
[27]
  viability, T/C: 91.7%
[28]
  viability, T/C: 94.5%
[29]
  viability, T/C: 81.3%
[30]
  viability, T/C: 84.9%
Second compound 10 µM, first compound 0.949 µM
  viability, T/C: 74.1%
Second compound 10 µM, first compound 3 µM
  viability, T/C: 79.4%

## Cn1ncnc1C1c2n[nH]c(=O)c3cc(F)cc(c23)NC1c1ccc(F)cc1 (stereo not given) + CC(CO)NC(=O)c1cc(-c2ccc(Cl)cc2)nn(-c2cnn(C)c2)c1=O
Second compound 0.1 µM
  IC50: > 100 nM
Second compound 0.316 µM
  IC50: > 100 nM
Second compound 1 µM
  IC50: > 100 nM
Second compound 3.16 µM
  IC50: > 100 nM
Second compound 10 µM
  IC50: > 100 nM
Second compound 0.1 µM, first compound 0.000316 µM
  viability, T/C: 111%
Second compound 0.1 µM, first compound 0.001 µM
  viability, T/C: 104%
Second compound 0.1 µM, first compound 0.00316 µM
  viability, T/C: 95.8%
Second compound 0.1 µM, first compound 0.01 µM
  viability, T/C: 98%
[1]
  viability, T/C: 84%
[2]
  viability, T/C: 107%
Second compound 0.316 µM, first compound 0.000316 µM
  viability, T/C: 84.1%
Second compound 0.316 µM, first compound 0.001 µM
  viability, T/C: 87.1%
Second compound 0.316 µM, first compound 0.00316 µM
  viability, T/C: 104%
Second compound 0.316 µM, first compound 0.01 µM
  viability, T/C: 89%
[3]
  viability, T/C: 85.2%
[4]
  viability, T/C: 79.2%
Second compound 1 µM, first compound 0.000316 µM
  viability, T/C: 96.2%
Second compound 1 µM, first compound 0.001 µM
  viability, T/C: 101%
Second compound 1 µM, first compound 0.00316 µM
  viability, T/C: 73.7%
Second compound 1 µM, first compound 0.01 µM
  viability, T/C: 81.2%
[5]
  viability, T/C: 74.1%
[6]
  viability, T/C: 103%
Second compound 3.16 µM, first compound 0.000316 µM
  viability, T/C: 79.7%
Second compound 3.16 µM, first compound 0.001 µM
  viability, T/C: 73%
Second compound 3.16 µM, first compound 0.00316 µM
  viability, T/C: 71.4%
Second compound 3.16 µM, first compound 0.01 µM
  viability, T/C: 89.1%
[7]
  viability, T/C: 84.5%
[8]
  viability, T/C: 77.2%
Second compound 10 µM, first compound 0.000316 µM
  viability, T/C: 71.8%
Second compound 10 µM, first compound 0.001 µM
  viability, T/C: 74.6%
Second compound 10 µM, first compound 0.00316 µM
  viability, T/C: 61.4%
Second compound 10 µM, first compound 0.01 µM
  viability, T/C: 89.4%
[9]
  viability, T/C: 75.9%
[10]
  viability, T/C: 76.1%

## Nc1ncn(C2CC(O)C(CO)S2)c(=O)n1 (stereo not given) + CC(CO)NC(=O)c1cc(-c2ccc(Cl)cc2)nn(-c2cnn(C)c2)c1=O
Second compound 0.1 µM
  IC50: > 300 nM
Second compound 0.316 µM
  IC50: > 300 nM
Second compound 1 µM
  IC50: > 300 nM
Second compound 3.16 µM
  IC50: > 300 nM
Second compound 10 µM
  IC50: > 300 nM
Second compound 0.1 µM, first compound 0.000949 µM
  viability, T/C: 110%
Second compound 0.1 µM, first compound 0.003 µM
  viability, T/C: 98.1%
[11]
  viability, T/C: 107%
[12]
  viability, T/C: 102%
[13]
  viability, T/C: 83.4%
[14]
  viability, T/C: 87.3%
Second compound 0.316 µM, first compound 0.000949 µM
  viability, T/C: 103%
Second compound 0.316 µM, first compound 0.003 µM
  viability, T/C: 87%
[15]
  viability, T/C: 116%
[16]
  viability, T/C: 113%
[17]
  viability, T/C: 74%
[18]
  viability, T/C: 68.9%
Second compound 1 µM, first compound 0.000949 µM
  viability, T/C: 93.4%
Second compound 1 µM, first compound 0.003 µM
  viability, T/C: 77.5%
[19]
  viability, T/C: 92%
[20]
  viability, T/C: 96%
[21]
  viability, T/C: 99.2%
[22]
  viability, T/C: 80.4%
Second compound 3.16 µM, first compound 0.000949 µM
  viability, T/C: 93%
Second compound 3.16 µM, first compound 0.003 µM
  viability, T/C: 76.5%
[23]
  viability, T/C: 83.5%
[24]
  viability, T/C: 82%
[25]
  viability, T/C: 84.8%
[26]
  viability, T/C: 68.1%
Second compound 10 µM, first compound 0.000949 µM
  viability, T/C: 87.3%
Second compound 10 µM, first compound 0.003 µM
  viability, T/C: 78.1%
[27]
  viability, T/C: 80.9%
[28]
  viability, T/C: 77.4%
[29]
  viability, T/C: 84.2%
[30]
  viability, T/C: 68%
